Measurements from patent US20020115649A1, “Use of texaphyrins in macrophage-mediated disease” (Pharmacyclics, Inc., priority 1998, published 2002).

How the values were obtained:
[1] = Redox potentials listing; assay type: physicochemical
Description: Texaphyrin is a known radiosensitizer. Not wanting to be bound by theory, texaphyrin is thought to act as a radiosensitizer in the following manner. Oxygen is the ultimate electron acceptor in physiological systems. However, texaphyrins have a redox potential below that of oxygen.

[2] = Cardiac toxicity study for texaphyrin and doxorubicin; assay type: in vivo, Sprague Dawley rats; details: 20 micromoles/kg i.v. 1 hour after doxorubicin 1 mg/kg, once a week for twelve weeks; versus doxorubicin alone
Experimental: To test whether gadolinium texaphyrin exacerbates cardiac toxicity, Sprague Dawley rats were injected intravenously either with 5% mannitol (10 ml/kg, n=6), or doxorubicin (1 mg/kg, n=14), or doxorubicin (1 mg/kg) followed 1 hour later by gadolinium texaphyrin (20 micromoles/kg, n=14). The dosing schedule was repeated once a week for twelve weeks. Animals were sacrificed one week post the last dose, and hearts were fixed in formalin.

[3] = system: restenosis of balloon-injured carotid artery; test: Radiation therapy of balloon-injured rat carotid artery in preventing restenosis; assay type: in vivo, Sprague-Dawley male rats; details: 2 weeks post-treatment
Description: The rat carotid model was used for the studies. Sprague-Dawley male rats weighing about 400-450 g were anesthetized and maintained with Ketamine/Rompun cocktail via the animal's tail vein. The rats were shaved to expose the chest and neck, and a midline incision was made to expose the left common carotid artery, the external carotid artery, and the internal carotid artery. The internal carotid artery was temporally ligated. A small incision was made in the external carotid artery and a 2F Fogarty arterial embolectomy balloon catheter (Baxter Cardiovascular Group, Irvine, Calif.) was introduced from the external carotid artery to the common carotid artery. The balloon was inflated with 0.2 ml of saline and withdrawn from near to the common carotid bifurcation with a rotating motion to produce uniform endothelial denudation and medial stretching in the common carotid artery. After 3 passages, the catheter was removed, the external carotid artery was ligated, and the internal carotid artery was untied. The incision was then closed.
GdT2BET (2mM in 5% mannitol) at 20 μmol/kg was injected via the tail vein 22 hours following balloon denudation of the carotid artery. Radiation therapy was performed 2 hours after the gadolinium texaphyrin injection. The treatment area was marked and a 250 kV X-ray radiation machine was used. […]

[4] = system: macrophage of restenotic tissue; test: Photodynamic therapy of balloon-induced iliac artery lesions (local delivery plus intravascular light); assay type: in vivo, New Zealand White rabbits
Experimental: Bilateral iliac artery lesions were induced in 9 male New Zealand White rabbits (NZW) after being on a high cholesterol diet (1%, Dyets, Bethlehem, Pa.) for 3 weeks. Each rabbit was anesthetized using a mixture of ketamine […]. The right carotid artery was exposed, carefully excised and a 5 Fr sheath (USCI) inserted into the descending aorta under fluoroscopic guidance. A 3.0 mm angioplasty balloon was advanced into the right or left iliac artery and then inflated distal to the deep femoral artery three times at 8 atm for 30 seconds. Subsequently, the same procedure was repeated in the contralateral iliac artery. Animals were maintained on the high cholesterol diet.
Six weeks after the denudation, each rabbit was reanesthetized. The left carotid artery was exposed, carefully excised and a 6 Fr sheath (USCI) inserted into the descending aorta under fluoroscopic guidance. A local drug delivery balloon (3 mm, Scimed, Minneapolis, Minn.) was advanced to the left or right iliac artery and placed at the same position as the previous balloon injury site. The proximal end of the delivery catheter was placed at the internal iliac artery under fluoroscopic control as a landmark reference. The balloon was inflated to 6 atm and 1 μmol/kg lutetium texaphyrin (LuT2BET) (2 mM in 5% mannitol) was infused intraarterially adjacent to the atheroma at a rate of 0.2 ml/min. Fifteen minutes post infusion a 0.9 mm optical fiber with a 3 cm cylindrical diffuser (Laserscope Inc., San Jose, Calif.) connected to an argon pumped dye laser (732 nm, Coherent Inc., Palo Alto, Calif.) delivered intravascular light at 180 J/cmF. One rabbit served as a light alone (no LuT2BET) control.
Two weeks following light treatment, each animal was euthanized and both iliac arteries were carefully removed from the adjacent tissue. Care was taken to harvest the exact portion of the artery where local drug delivery occurred by matching the anatomy with the respective fluoroscopic picture. The contralateral artery in the LuT2BET-treated rabbit served as a sensitizer alone control vessel. The vessels were fixed in 10% buffered formalin, embedded in paraffin and stained sequentially with RAM 11 (an antibody that binds with a cytoplasmic antigen in rabbit macrophages (DAKO)), and hematoxylin and eosin (H&E) for light microscopic analysis and planimetry.

[5] = Maximum tolerated dose of lutetium texaphyrin in one study; assay type: in vivo; details: intravenous injection; determined in one study
Experimental: Administration for Photodynaminc Therapy: By way of example, lutetium texaphyrin is administered in solution containing 2 mg/ml optionally in 5% mannitol, USP. Dosages of about 1.0 or 2.0 mg/kg to about 4.0 or 5.0 mg/kg, preferably 3.0 mg/kg may be employed, up to a maximum tolerated dose that was determined in one study to be 5.2 mg/kg. The texaphyrin is administered by intravenous injection, followed by a waiting period of from as short a time as several minutes or about 3 hours to as long as about 72 or 96 hours (depending on the treatment being effected) to facilitate intracellular uptake and clearance from the plasma and extracellular matrix prior to the administration of photoirradiation.

[6] = system: artery closure after angioplasty; details: in vivo; cited from earlier work

CC(=O)O.CC(=O)O.CCc1c(CC)c2cc3nc(cnc4cc(OCCOCCOCCOC)c(OCCOCCOCCOC)cc4ncc4nc(cc1[n-]2)C(CCCO)=C4C)C(C)=C3CCCO.[Gd] [GdT2B2]
redox potential [1]: +0.08 V.

CC(=O)[O-].CC(=O)[O-].CCc1c(CC)c2cc3nc(cnc4cc(OCCOCCOCCOC)c(OCCOCCOCCOC)cc4ncc4nc(cc1[n-]2)C(CCCO)=C4C)C(C)=C3CCCO.O.[Gd+3] [GdT2BET]
cardiac toxicity (histologic evaluation) [2]: did not significantly exacerbate cardiac toxicity
restenosis in H&E sections, animals of four treated ([3]; 20 μmol/kg i.v. 22 hours after balloon denudation, 7 Gray X-ray 2 hours later, controls 100% restenosis): three had no evidence of restenosis
restenosis, lumen circumference affected in the fourth animal ([3]; 20 μmol/kg i.v. plus 7 Gray): up to 40%

CC(=O)[O-].CC(=O)[O-].CCc1c(CC)c2cc3nc(cnc4cc(OCCOCCOCCOC)c(OCCOCCOCCOC)cc4ncc4nc(cc1[n-]2)C(CCCO)=C4C)C(C)=C3CCCO.O.[Lu+3] [LuT2BET]
macrophages in treated lesion in intima (RAM 11 quantitative analysis) ([4]; 1 μmol/kg intraarterial plus 732 nm light, two weeks after light, versus 21±18%, P<<0.01): 5.1±5.3%
macrophages in treated lesion in media (RAM 11 quantitative analysis) ([4]; 1 μmol/kg intraarterial plus 732 nm light, two weeks after light, versus 22±20%, P<<0.01): 7.7±10%
Mean % plaque area in the treated segments ([4]; 1 μmol/kg intraarterial, 732 nm light 15 min post infusion, two weeks after light, nontreated segments 81±12%, P<<0.01): 73±10%
destruction of activated macrophages ([4]; with photoirradiation): selectively destroys activated macrophages
maximum tolerated dose [5]: 5.2 mg/kg

B1: Abciximab (antibody, chains of the INN, looked up, V domains shown)
VH: EVQLQQSGTVLARPGASVKMSCEASGYTFTNYWMHWVKQRPGQGLEWIGAIYPGNSDTSYIQKFKGKAKLTAVTSTTSVYMELSSLTNEDSAVYYCTLYDGYYVFAYWGQGTLVTVSA
VL: EIVLTQSPVTLSVTPGDSVSLSCRASRDISNNLHWFQQTSHESPRLLIKYASQSMSGIPSRFSGSGSGTDFTLSINSVETEDFGMYFCQQTNSWPYTFGGGTKLEIK
modifications: Fab
reduction of the risk of artery closure after angioplasty [6]: up to 70%
